Source: EP2402356A2, “Modified 2',3'-dideoxynucleosides for treatment infections caused by human immunodeficiency virus (HIV) multidrug resistant strains, method of their synthesis and the pharmaceutical agent containing these nucleosides” (Instytut Biochemii I Biofizyki Pan, priority 2010, dated 2012)
Like-named read-outs stand apart in the source and are kept apart here.

Tests used:
[1] = system: deCIPhR™ cell system
[2] = system: NRTI (RTMC) resistant; experiment: microbe, parasite or virus in culture; assay type: cell-based, HIV-1; settings: Human immunodeficiency virus 1
[3] = Cytotoxicity, Alamar Blue Cell Viability Assay; settings: deciphr cells
[4] = system: Wild type #; experiment: Antiviral activity (EC50) in CEMA and CEM-T4 cells; assay type: cell-based, HIV-1; settings: Human immunodeficiency virus 1; wild type # marked a,b = CEMA and CEM-T4 cells
[5] = system: NNRTI (RTMDR) 5 resistant; experiment: microbe, parasite or virus in culture; assay type: cell-based, HIV-1; settings: Human immunodeficiency virus 1
[6] = system: Wild type pNL4-3; experiment: Antiviral activity (EC50), deCIPhR cell system, beta-galactosidase indicator cell readout; assay type: cell-based, HIV-1
[7] = system: Recombin ant provirus from the patient 6021959; experiment: microbe, parasite or virus in culture; assay type: cell-based, HIV-1
[8] = system: Recombin ant provirus from the patient 7007984; experiment: microbe, parasite or virus in culture; assay type: cell-based, HIV-1
[9] = Human immunodeficiency virus 1, CEM-T4
[10] = recombinant provirus from patient 7007984, RT resistant mutations M41 L, K70R, A985, T215Y, read-out: EC50
[11] = HIV-1 wild type pNL4-3, cells per table title (deCIPhR, CEMA, CEM-T4), row has no cell mark, presumably deCIPhR, read-out: EC50
[12] = recombinant provirus from patient 6021959, RT resistance mutations M41 L, E44D, T69D, L741, K103N, V108I, V118I, M184V, M230L, T215Y, G333E, read-out: EC50

| SMILES | cytotoxicity (CD50) [1] | EC50 [2] [nM] | CC50 [3] [nM] | EC50 [4] [nM] | EC50 [5] [nM] | EC50 [6, 9] [nM] | EC50 ([7]; Human immunodeficiency virus 1) [nM] | EC50 [8, 10] [nM] | EC50 [6, 11] [nM] | EC50 [7, 12] [nM] | EC50 ([8]; Human immunodeficiency virus 1) [nM] |
| --- | --- | --- | --- | --- | --- | --- | --- | --- | --- | --- | --- |
| CCSCCCCCCCCCCC(=O)OC[C@H]1O[C@@H](n2cc(C)c(=S)[nH]c2=O)C[C@@H]1F [WA-2 3, 1-(5-O-(2,3-dideoxy-11-thioethylundecanoyl)-3-fluoro-b-D-ribofuranosyl)-4-thiothymine] | not toxic | 450 | > 200000 | 450 | 480 | 965 | 5520 | – | – | – | – |
| Cc1cn([C@H]2C[C@H](N=[N+]=[N-])[C@@H](COP(=O)(O)O)O2)c(=O)[nH]c1=O [AZTM P, reference compound] | – | – | – | – | – | – | – | 1030 | 63 | 1710 | – |
| Cc1cn([C@H]2C[C@H](F)[C@@H](COC(=O)CCCCCCCCCCCBr)O2)c(=O)[nH]c1=S [WA- 19, 1-(5-O-(12-bromododecanoyl)-2.3-dideoxy-3-fluoro-b-D-ribofuranosyl)-4-th iothymine] | not toxic | – | > 200000 | – | – | 710 | 10000 | – | – | – | – |
| Cc1cn([C@H]2C[C@H](F)[C@@H](COP(=O)(O)O)O2)c(=O)[nH]c1=O [FLT MP, reference compound] | – | – | – | – | – | – | – | 18 | 10 | 30 | – |
| CCCCCCCCCCCCCC(=O)OC[C@H]1O[C@@H](n2cc(C)c(=S)[nH]c2=O)C[C@@H]1F [WA- 18, 1-(2,3-dideoxy-3-fluoro-5-O-(12-tetradodecanoyl)-b-D-ribofuranosyl)-4-thio thymine] | not toxic | 150 | > 200000 | 130 | 45 | 421 | 8340 | – | – | – | 2400 |
| CCSCCCCCCCCCCCC(=O)OC[C@H]1O[C@@H](n2cc(C)c(=S)[nH]c2=O)C[C@@H]1F [WA-2 2, 1-(2,3-dideoxy-5-O-(12-thioethyldodecanoyl)-3-fluoro-b-D-ribofuranosyl)-4-thiothymine] | not toxic | 75 | > 200000 | 120 | – | 998 | 10000 | – | – | – | 5920 |
| COCCCCCCCCCCCC(=O)OC[C@H]1O[C@@H](n2cc(C)c(=S)[nH]c2=O)C[C@@H]1F [WA2 1, 1-(2,3-dideoxy-3-fluoro-5-O-(12-methoxydodecanoyl)-b-D-ribofuranosyl)-4-thiothymine] | not toxic | 180 | > 200000 | 330 | 550 | 269 | 9260 | – | – | – | 3150 |
| Cc1cn([C@H]2C[C@H](F)[C@@H](COC(=O)CCCCCCCCCCCN=[N+]=[N-])O2)c(=O)[nH]c1=S [WA- 2 0, 1-(5-O-(12-azidododecanoyl)-2,3-dideoxy-3-fluoro-b-D-ribofuranosyl)-4-thi othymine] | not toxic | ≤ 100000 | > 200000 | 450 | 100 | 822 | 4640 | – | – | – | 2880 |
